Structures are written as SMILES.

One experiment concerns the target DGKα (Homo sapiens, UniProt P23743). Kind of experiment: DGKα biochemical assay (ADP-Glo). To be noted: read-out: DGK α IC50. On the procedure:
(§1) Compounds of the present invention were prepared into 10 mM DMSO solution and 10 nL of stock was transferred into 384 plates (Optiplate 384 plate) using Echo550. DMSO was used as high control, and ATP substrate buffer was used as a low control. A 1× enzyme assay buffer was prepared (Hepes, pH 7.0 25 mM, BSA 0.05%, Triton-X100 0.002%, CaCl2) 1 μM, MgCl2 10 mM, DTT 2 mM). […] OAG (1-oleoyl-2-acetyl-sn-glycerol, 25 mg/ml, Avanti 8001000) and PS (10 mg/ml, Avanti 840032P) were mixed at the ratio of 1:2. A 1× substrate solution was prepared with 1× assay buffer by 100-fold dilution. The substrate solution was sonicated on ice for 1 min. The pure ATP was added to the substrate solution (DGKα:400 μM). 5 μL of the enzyme solution were added to the 384 well plate, and the plate was spun for 1 min at 1000 rpm and incubated for 30 mins at RT. 5 μL of 1× substrate solution were added to the 384 well plate, the plate was spun and then incubated for 45 mins at RT. 10 μL ADP-Glo […] was added to stop the assay. After 60 mins at RT, 20 μL ADP-Glo Detection buffer was added as the final step. Plate was read after 45 min incubation at RT.
(§2) Data analysis was performed by calculating the […] using following the formula:
(§3) [formula] • High control (Hc): DMSO/DGKα(DGKζ)/Substrate/ATP/ADP-Glo • Low Control (Lc): ATP/ADP-Glo
In general terms: ADP-Glo first removes unused ATP, then detects ADP through luciferase.

Another experiment deals with T1, DGKζ (Homo sapiens, UniProt Q13574).
T1 construct: purchased Carna 12-110
Put plainly: DGKζ biochemical assay (ADP-Glo). The note with it: read-out: DGK ζ IC50. On the procedure:
as §1, §2, §3

Sequence of DGKα (P23743 whole entry): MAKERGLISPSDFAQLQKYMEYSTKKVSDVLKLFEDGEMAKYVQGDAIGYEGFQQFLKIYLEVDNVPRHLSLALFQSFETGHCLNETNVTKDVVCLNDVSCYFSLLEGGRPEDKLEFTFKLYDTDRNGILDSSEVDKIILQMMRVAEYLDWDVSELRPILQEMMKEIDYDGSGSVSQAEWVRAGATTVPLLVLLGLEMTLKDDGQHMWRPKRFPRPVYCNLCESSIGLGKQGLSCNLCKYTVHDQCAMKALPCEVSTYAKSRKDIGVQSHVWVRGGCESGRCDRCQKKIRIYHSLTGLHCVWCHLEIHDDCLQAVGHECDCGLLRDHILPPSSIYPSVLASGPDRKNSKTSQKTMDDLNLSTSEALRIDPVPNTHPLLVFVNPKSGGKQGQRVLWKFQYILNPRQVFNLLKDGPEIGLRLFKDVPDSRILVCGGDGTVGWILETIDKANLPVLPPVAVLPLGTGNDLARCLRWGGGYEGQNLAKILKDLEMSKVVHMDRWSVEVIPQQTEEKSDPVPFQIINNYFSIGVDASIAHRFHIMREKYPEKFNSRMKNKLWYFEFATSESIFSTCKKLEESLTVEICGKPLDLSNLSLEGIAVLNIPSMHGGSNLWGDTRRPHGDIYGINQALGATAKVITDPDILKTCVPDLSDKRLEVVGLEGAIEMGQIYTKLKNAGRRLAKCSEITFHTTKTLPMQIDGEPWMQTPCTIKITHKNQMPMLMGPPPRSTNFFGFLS
T1 sequence (Q13574 1-929 isoform Q13574-4): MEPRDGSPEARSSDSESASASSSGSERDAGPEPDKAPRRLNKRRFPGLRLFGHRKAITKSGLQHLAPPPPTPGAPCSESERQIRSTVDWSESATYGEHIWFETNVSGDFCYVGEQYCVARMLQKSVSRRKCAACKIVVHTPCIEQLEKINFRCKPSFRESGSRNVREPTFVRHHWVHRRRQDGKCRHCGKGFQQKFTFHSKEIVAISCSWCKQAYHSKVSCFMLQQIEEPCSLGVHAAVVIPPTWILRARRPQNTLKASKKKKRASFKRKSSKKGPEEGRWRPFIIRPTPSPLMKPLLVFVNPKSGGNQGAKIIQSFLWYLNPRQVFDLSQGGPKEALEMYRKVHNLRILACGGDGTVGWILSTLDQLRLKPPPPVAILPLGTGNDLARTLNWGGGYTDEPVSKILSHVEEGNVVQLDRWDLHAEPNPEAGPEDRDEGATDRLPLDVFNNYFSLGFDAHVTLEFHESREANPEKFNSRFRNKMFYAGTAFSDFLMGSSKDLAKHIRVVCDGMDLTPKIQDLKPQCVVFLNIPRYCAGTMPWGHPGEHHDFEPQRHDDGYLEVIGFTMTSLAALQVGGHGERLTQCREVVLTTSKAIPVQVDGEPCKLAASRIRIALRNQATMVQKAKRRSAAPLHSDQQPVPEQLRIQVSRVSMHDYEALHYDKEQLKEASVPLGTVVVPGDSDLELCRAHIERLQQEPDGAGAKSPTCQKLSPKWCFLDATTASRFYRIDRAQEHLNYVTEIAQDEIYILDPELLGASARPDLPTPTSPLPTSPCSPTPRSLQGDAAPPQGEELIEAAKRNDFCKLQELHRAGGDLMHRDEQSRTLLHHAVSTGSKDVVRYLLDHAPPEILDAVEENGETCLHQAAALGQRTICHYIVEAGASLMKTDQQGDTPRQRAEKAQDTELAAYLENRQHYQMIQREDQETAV

For `Cc1cc(F)ccc1N(C[C@H]1CCOC1)[C@H]1CC[C@H](N(C)c2c(C#N)c(=O)n(C)c3ccc(C#N)nc23)CC1` [Example 165, trans-8-((-4-((4-fluoro-2-methylphenyl)(((R)-tetrahydrofuran-3-yl)methyl)amino)cyclohexyl) (methyl)amino)-5-methyl-6-oxo-5,6-dihydro-1,5-naphthyridine-2,7-dicarbonitrile], the IC50 at DGKα and at DGKζ was 100 to 1000 nM throughout.

`Cn1c(=O)c(C#N)c(N(C)[C@H]2CC[C@@H](N(CC3CC3)c3ccc(Cl)cc3)CC2)c2nc(Cl)ccc21` [Example 6, cis-6-chloro-4-((4-((4-chlorophenyl) (cyclopropylmethyl)amino)cyclohexyl)(methyl)amino)-1-methyl-2-oxo-1,2-dihydro-1,5-naphthyridine-3-carbonitrile]: the figures for the IC50 on DGKα and on DGKζ were 10 to 100 nM and no less than 1000 nM, respectively.

Consider `COc1cc(F)ccc1N(C1CC1)[C@H]1CC[C@H](N(C)c2c(C#N)c(=O)n(C)c3ccc(C#N)nc23)CC1` [Example 37, trans-8-((4-(cyclopropyl(4-fluoro-2-methoxyphenyl)amino)cyclohexyl)(methyl)amino)-5-methyl-6-oxo-5,6-dihydro-1,5-naphthyridine-2,7-dicarbonitrile], for which the IC50 (usually the midpoint of a concentration-inhibition curve) at DGKα was no less than 1000 nM; at DGKζ, 100 to 1000 nM.

For the molecule `Cc1ccc(N(CC2CCC2)[C@H]2CC[C@@H](N(C)c3c(C#N)c(=O)n(C)c4ccc(C#N)nc34)CC2)cc1OC(F)F` [Example 148, cis-8-((-4-((cyclobutylmethyl)(3-(difluoromethoxy)-4-methylphenyl)amino)cyclohexyl)(methyl)amino)-5-methyl-6-oxo-5,6-dihydro-1,5-naphthyridine-2,7-dicarbonitrile], the IC50 at DGKα and at DGKζ was 10 to 100 nM each time.

For the molecule `Cn1c(=O)cc(N2CCC(N(CC3CC3)c3ccccc3O)CC2)c2nc(C#N)ccc21` [Example 1A, 8-(4-((Cyclopropylmethyl)(2-hydroxyphenyl)amino)piperidin-1-yl)-5-methyl-6-oxo-5,6-dihydro-1,5-naphthyridine-2-carbonitrile], the IC50 on DGKα is 100 to 1000 nM; on DGKζ, no less than 1000 nM.

In the case of `Cc1cc(F)ccc1N(C[C@H]1CCCO1)[C@H]1CC[C@H](N(C)c2c(C#N)c(=O)n(C)c3ccc(C#N)nc23)CC1` [Example 167, trans-8-((-4-((4-fluoro-2-methylphenyl)(((R)-tetrahydrofuran-2-yl)methyl)amino)cyclohexyl) (methyl)amino)-5-methyl-6-oxo-5,6-dihydro-1,5-naphthyridine-2,7-dicarbonitrile], the IC50 lay within 100 to 1000 nM on DGKα and 10 to 100 nM at DGKζ.

As to `Cn1c(=O)c(C#N)c(N(C)[C@H]2CC[C@@H](N(C[C@@H]3CCCOC3)c3ccc(F)cc3)CC2)c2nc(C#N)ccc21` [Example 69], the IC50 at DGKα and at DGKζ was 10 to 100 nM each time.

For the molecule `Cn1c(=O)c(C#N)c(N(C)[C@H]2CC[C@@H](N(CC3CC3)c3ccc4c(c3)OCO4)CC2)c2nc(C#N)ccc21` [Example 61, cis-8-((4-(benzo[d][1,3]dioxol-5-yl(cyclopropylmethyl)amino)cyclohexyl)(methyl)amino)-5-methyl-6-oxo-5,6-dihydro-1,5-naphthyridine-2,7-dicarbonitrile], the IC50 on DGKα lay within 100 to 1000 nM; on DGKζ, 10 to 100 nM.

Take `COc1cc(F)ccc1N(C1CCC1)[C@H]1CC[C@@H](N(C)c2c(C#N)c(=O)n(C)c3ccc(C#N)nc23)CC1` [Example 18, cis-8-((4-(cyclobutyl(4-fluoro-2-methoxyphenyl)amino)cyclohexyl)(methyl)amino)-5-methyl-6-oxo-5,6-dihydro-1,5-naphthyridine-2,7-dicarbonitrile]: the IC50 on DGKα and on DGKζ was 100 to 1000 nM throughout.

For `COc1cc(F)ccc1N(C)[C@H]1CC[C@@H](N(C)c2c(C#N)c(=O)n(C)c3ccc(C#N)nc23)CC1` [Example 64], the IC50 at DGKα and on DGKζ was 10 to 100 nM throughout.

On to `Cn1c(=O)c(C#N)c(N[C@H]2CC[C@H](N(c3ccccc3)C3CC3)CC2)c2nc(Cl)ccc21` [Example 3A, trans-6-Chloro-4-((4-(cyclopropyl(phenyl)amino)cyclohexyl)amino)-1-methyl-2-oxo-1,2-dihydro-1,5-naphthyridine-3-carbonitrile], for which the IC50 at DGKα was less than 10 nM; at DGKζ, no less than 1000 nM.

`Cn1c(=O)cc(N(C)[C@H]2CC[C@@H](N(CC3CCC3)c3ccc4c(c3)OCCO4)CC2)c2nc(C#N)ccc21` [Example 169, cis-8-((4-((cyclobutylmethyl)(2,3-dihydrobenzo[b] [1,4]dioxin-6-yl)amino)cyclohexyl)(methyl)amino)-5-methyl-6-oxo-5,6-dihydro-1,5-naphthyridine-2-carbonitrile]: the IC50 on DGKα and at DGKζ was 10 to 100 nM in each case.

`COc1cccc(N(CC2CC2)[C@H]2CC[C@@H](N(C)c3c(C#N)c(=O)n(C)c4ccc(Cl)nc34)CC2)c1` [Example 11, cis-6-chloro-4-((4-((cyclopropylmethyl)(3-methoxyphenyl)amino)cyclohexyl)(methyl)amino)-1-methyl-2-oxo-1,2-dihydro-1,5-naphthyridine-3-carbonitrile]: the figures for the IC50 at DGKα and at DGKζ were 10 to 100 nM and 100 to 1000 nM, respectively.

On to `COc1cc(N(CC2CC2)[C@H]2CC[C@@H](N(C)c3c(C#N)c(=O)n(C)c4ccc(C#N)nc34)CC2)cc(OC)c1F` [Example 101], for which the figures for the IC50 on DGKα and on DGKζ were no less than 1000 nM and 10 to 100 nM, respectively.

For `Cn1c(=O)c(C#N)c(N(C)[C@H]2CC[C@H](N(CC3CCCOC3)c3ccc(F)cc3)CC2)c2nc(C#N)ccc21` (relative stereo) [Example 58, trans-8-((4-((4-fluorophenyl)((tetrahydro-2H-pyran-3-yl)methyl)amino)cyclohexyl)(methyl)amino)-5-methyl-6-oxo-5,6-dihydro-1,5-naphthyridine-2,7-dicarbonitrile], the IC50 on DGKα was 100 to 1000 nM; at DGKζ, no less than 1000 nM.

Regarding `Cn1c(=O)c(C#N)c(N(C)[C@H]2CC[C@@H](N(C[C@H]3CCCOC3)c3ccc(F)cc3)CC2)c2nc(C#N)ccc21` [Example 68], the IC50 on DGKα was less than 10 nM; at DGKζ, 10 to 100 nM.

As for `COc1cc(N(C2CC2)[C@H]2CC[C@@H](N(C)c3cc(=O)n(C)c4ccc(C#N)nc34)CC2)ccc1F` [Example 83], the half-maximal inhibitory concentration (IC50) on DGKα and on DGKζ was 100 to 1000 nM in each case.

For the molecule `Cc1nc(F)ccc1N(CC1CCC1)[C@H]1CC[C@H](N(C)c2c(C#N)c(=O)n(C)c3ccc(C#N)nc23)CC1` [Example 131, trans-8-((-4-((cyclobutylmethyl)(6-fluoro-2-methylpyridin-3-yl)amino)cyclohexyl)(methyl)amino)-5-methyl-6-oxo-5,6-dihydro-1,5-naphthyridine-2,7-dicarbonitrile], the 50% inhibitory concentration (IC50) on DGKα and on DGKζ was 100 to 1000 nM in each case.

`Cn1c(=O)c(C#N)c(N(C)[C@H]2CC[C@H](N(CC3CC3)c3cc(F)cc(F)c3)CC2)c2nc(C#N)ccc21` [Example 86]: the IC50 on DGKα and at DGKζ was 100 to 1000 nM each time.

On to `Cc1cc(F)ccc1N(CC1COCCN1C)[C@H]1CC[C@H](N(C)c2c(C#N)c(=O)n(C)c3ccc(C#N)nc23)CC1` (stereo partly drawn) [Example 185, trans-8-((-4-((4-fluoro-2-methylphenyl)((4-methylmorpholin-3-yl)methyl)amino)cyclohexyl) (methyl)amino)-5-methyl-6-oxo-5,6-dihydro-1,5-naphthyridine-2,7-dicarbonitrile], for which the IC50 on DGKα and on DGKζ was 100 to 1000 nM each time.

As to `Cn1c(=O)cc(N(C)[C@H]2CC[C@@H](N(CC3COCCO3)c3cccc4c3OCO4)CC2)c2nc(C#N)ccc21` (single isomer, unassigned) [Example 195, cis-8-((-4-((((S or R)-1,4-dioxan-2-yl)methyl) (benzo[d][1,3]dioxol-4-yl)amino)cyclohexyl)(methyl)amino)-5-methyl-6-oxo-5,6-dihydro-1,5-naphthyridine-2-carbonitrile], the IC50 at DGKα and at DGKζ was 100 to 1000 nM throughout.

Turning to `Cn1c(=O)c(C#N)c(N(C)[C@H]2CC[C@@H](N(c3ccc(F)cc3)C3CC3)CC2)c2nc(Cl)ccc21` [Example 51, cis-6-chloro-4-((4-(cyclopropyl(4-fluorophenyl)amino)cyclohexyl)(methyl)amino)-1-methyl-2-oxo-1,2-dihydro-1,5-naphthyridine-3-carbonitrile], the IC50 on DGKα is less than 10 nM; at DGKζ it was 100 to 1000 nM.

For the molecule `Cc1cc(F)c(F)cc1N(CC1CCC1)[C@H]1CC[C@H](N(C)c2c(C#N)c(=O)n(C)c3ccc(Cl)nc23)CC1` [Example 137, trans-6-chloro-4-((4-((cyclobutylmethyl)(4,5-difluoro-2-methylphenyl)amino)cyclohexyl)(methyl)amino)-1-methyl-2-oxo-1,2-dihydro-1,5-naphthyridine-3-carbonitrile], the IC50 at DGKα and at DGKζ was no less than 1000 nM each time.

In the case of `Cc1ccc(N(CC2CCC2)[C@H]2CC[C@@H](N(C)c3cc(=O)n(C)c4ccc(C#N)nc34)CC2)cc1` [Example 100], the IC50 at DGKα was less than 10 nM; at DGKζ, no less than 1000 nM.

The values are drawn from US20230271954A1 (Gossamer Bio Services, Inc., priority 2020, published 2023).
